Assay results taken from patent publication US20250019700A1, “TREATING CHEMORESISTANT FORMS OF LEUKEMIA AND OTHER CANCERS THAT OVEREXPRESS RNA BINDING PROTEIN FXR1” (The General Hospital Corporation, priority 2021, published 2025).

Tests used:
Format in all cases: cell-based
FXR1 = assay: Western blot of FXR1 levels in AraC treated THP1 cells; settings: AraC treated surviving THP1 cells compared to untreated (1 μM AraC, FIG. 1A)
Experimental: (§1) THP1 cells were cultured in […] media supplemented with 10% fetal bovine serum (FBS), 2 mM L-Glutamine, 100 μg/mL streptomycin and 100 U/ml penicillin at 37° C. in 5% CO2. SS THP1 cells were prepared by washing with PBS followed by serum-starvation at a density of 2×10^5 cells/mL and AraCS cells, by treatment with indicated concentrations of AraC for indicated periods of time. THP1 (TIB-202) and MV4:11 (CRL-9591) were obtained from ATCC. MOLM13 (ACC554) were obtained from DSMZ. Cell lines kindly provided by David Scadden.
(§2) Cells were collected and resuspended in lysis buffer containing 40 mM Tris-HCl (pH 7.4), 6 mM MgCl2, 150 mM NaCl, 0.1% NP-40, 1 mM DTT, […], 17.5 mM β-glycerophosphate, 5 mM NaF and protease inhibitors. Samples containing 80 μg of protein were loaded onto 4%-20% gradient SDS-PAGE (Bio-Rad) or 16% SDS-PAGE (Invitrogen), transferred to PVDF membranes and processed for immunoblotting.
Antibodies against FXR1 (used for Western), Actin, Tubulin were from Millipore; NOLC1, DDX21, PolR1D, RPLP0, RPLP2, RPL29, RPL11, FXR1 (used for Immunoprecipitation) were from Protein Tech; PKR, P—PKR, EIF2α, P-EIF2α, GCN2 (used for immunoprecipitation) were from Cell Signaling; P-GCN2, GCN2 (used for Western) were from abcam.

[1] = test system: 28S rRNA snoRA22 sites U4966 and U4975; assay: Low dNTP CMCT qPCR assay of rRNA pseudouridylation; settings: AraC cells (THP1)
Experimental: For analysis of 2′O-methylation, RNA was prepared from indicated cells. Reverse transcription (as described above in qPCR) was performed with primers in the reverse orientation from the modification site on ribosomal RNA. Two different dNTP concentrations were used for each primer, low (0.025 mM) and high (2.5 mM). qPCR was done with the resulting cDNA using primers at forward and reverse orientation to the modified sites. Fold change in modification was calculated based on difference of Ct values in the low and high dNTP conditions. For analyzing pseudouridylation, first the RNA was treated with CMCT (1-cyclohexyl-(2-morpholinoethyl) carbodiimide metho-p-toluene sulfonate) under alkaline conditions. Rest of the experiment was done as described above for 2′O-methylation.

PKR = assay: Western blot of phosphorylated PKR in AraC treated cells; settings: AraC treated cells (0, 1, 5 μM AraC), normalized to total PKR
Experimental: Cells were collected and resuspended in lysis buffer containing 40 mM Tris-HCl (pH 7.4), 6 mM MgCl2, 150 mM NaCl, 0.1% NP-40, 1 mM DTT, 20 mM, 17.5 mM β-glycerophosphate, 5 mM NaF and protease inhibitors. Samples containing 80 μg of protein were loaded onto 4%-20% gradient SDS-PAGE (Bio-Rad) or 16% SDS-PAGE (Invitrogen), transferred to PVDF membranes and processed for immunoblotting. Antibodies against FXR1 (used for Western), Actin, Tubulin were from Millipore; NOLC1, DDX21, PolR1D, RPLP0, RPLP2, RPL29, RPL11, FXR1 (used for Immunoprecipitation) were from Protein Tech; PKR, P—PKR, EIF2α, P-EIF2α, GCN2 (used for immunoprecipitation) were from Cell Signaling; P-GCN2, GCN2 (used for Western) were from abcam.

[2] = test system: FXR1-overexpression cells; assay: Polysome analysis followed by qPCR of mRNAs, with or without ISRIB; settings: FXR1 OE cells, 1 μM trans-ISRIB for 24 h
Experimental: Sucrose was dissolved in lysis buffer containing 100 mM KCl, 5 mM MgCl2, 2 mM DTT and 10 mM Tris-HCl (pH 7.4). Sucrose gradients from 10% to 55% were prepared in ultracentrifuge tubes (Beckman). Harvested cells were rinsed with ice-cold PBS and resuspended in lysis buffer with 1% Triton X-100 and 40 U/mL […] (New England Biolabs) for 20 minutes with intermittent tapping on ice. After centrifugation of cell lysates at 12,000×g for 20 minutes, supernatants were loaded onto sucrose gradients followed by ultracentrifugation (Beckman Coulter Optima L90) at 32,500×rpm at 4° C. for 80 min in the SW40 rotor. Samples were separated by density gradient fractionation system (Biocomp Piston Gradient Fractionation). RNAs were purified by using TRIzol (Invitrogen) from heavy polysome fractions and whole cell lysates. The synthesized cDNA probes from WT Expression Kit (Ambion) were hybridized to Gene Chip Human Transcriptome Array 2.0 (Affymetrix) and analyzed by the Partners Healthcare Center for Personalized Genetic Medicine Microarray and BUMC facilities. Gene ontology analysis for differentially expressed translatome or proteome was conducted by DAVID 6.7 tools. Molecular signatures enriched in FXR1 OE and Control cells were identified by Gene Set Enrichment Analysis (GSEA).
Total RNA was isolated using TRIzol (Invitrogen) according to the manufacturer's instructions. […]

ATF4 = assay: Western blot of non-canonical translation target ATF4 with ISRIB; settings: in the presence of ISRIB
Experimental: as §2

FXR1 OE cells (THP1) = assay: Chemosurvival (fraction of cell viability) of FXR1 OE cells treated with AraC plus inhibitor
Experimental: as §1
THP1 FXR1 OE cell lines were created by infecting cells with an FXR1 containing retroviral vector for constitutive over expression of FXR1. Corresponding control cell lines were made by infection with empty vector.
(§3) Cytarabine (AraC), Trans-ISRIB, FX-1, and Toyocamycin were obtained from Cayman Chemicals. For polysome analysis, FXR1 OE and control cells were treated with 1 μM trans-ISRIB for 24 h. For cell viability FXR1 OE and control cells were treated individually or with a combination of 5 μM AraC and 1 μM trans-ISRIB for 24 h; 100 nM Toyocamycin and 1 μM AraC; 10 μM FX-1 and 5 μM AraC.

G0 cells (THP1) = assay: Chemosurvival of G0 cells treated with ISRIB and AraC; settings: ISRIB and AraC (FIG. 4H)
Experimental: as §1, §3

Structure (SMILES): Nc1ccn([C@@H]2O[C@H](CO)[C@@H](O)[C@@H]2O)c(=O)n1 [AraC, Cytarabine]
- FXR1 protein level (FXR1): increases
- rRNA pseudouridylation at snoRA22 sites on 28S at U4966 and U4975 [1]: increases
- phosphorylation and activation of PKR (PKR): increased phosphorylation and activation

Structure (SMILES): O=C(COc1ccc(Cl)cc1)NC1CCC(NC(=O)COc2ccc(Cl)cc2)CC1 (stereo not drawn) [ISRIB]
- polysome association of mRNAs that are upregulated in FXR1-overexpressing cells [2]: reduced polysome association
- polysome association of other genes like vinculin [2]: without affecting
- level of known non-canonical targets such as ATF4 (ATF4): decrease
- chemosurvival (FXR1 OE cells (THP1); FXR1 OE cells, 1 μM trans-ISRIB combined with 5 μM AraC, 24 h, compared to buffer and AraC): reduced chemosurvival
- chemosurvival (G0 cells (THP1)): reduced chemosurvival

Structure (SMILES): N#Cc1cn([C@@H]2O[C@H](CO)[C@@H](O)[C@H]2O)c2ncnc(N)c12 [Toyocamycin]
- chemosurvival (FXR1 OE cells (THP1); 100 nM Toyocamycin and 1 μM AraC, FXR1 OE and control cells (FIG. 4I)): decreased
